Assay results published in US8450333B2, “Molecules for regulating cell death” (The Regents of The University of California, priority 2003, dated 2013).

What was measured:
recombinant Dnm1 = biological target: T1, recombinant Dnm1 (Saccharomyces cerevisiae, UniProt P54861); test: Dnm1 GTPase activity, radioactive TLC-based assay; assay type: biochemical, yeast
T1 construct: made in house; host or cells: insect cells (baculovirus expression system)
T1 sequence (P54861 1-757): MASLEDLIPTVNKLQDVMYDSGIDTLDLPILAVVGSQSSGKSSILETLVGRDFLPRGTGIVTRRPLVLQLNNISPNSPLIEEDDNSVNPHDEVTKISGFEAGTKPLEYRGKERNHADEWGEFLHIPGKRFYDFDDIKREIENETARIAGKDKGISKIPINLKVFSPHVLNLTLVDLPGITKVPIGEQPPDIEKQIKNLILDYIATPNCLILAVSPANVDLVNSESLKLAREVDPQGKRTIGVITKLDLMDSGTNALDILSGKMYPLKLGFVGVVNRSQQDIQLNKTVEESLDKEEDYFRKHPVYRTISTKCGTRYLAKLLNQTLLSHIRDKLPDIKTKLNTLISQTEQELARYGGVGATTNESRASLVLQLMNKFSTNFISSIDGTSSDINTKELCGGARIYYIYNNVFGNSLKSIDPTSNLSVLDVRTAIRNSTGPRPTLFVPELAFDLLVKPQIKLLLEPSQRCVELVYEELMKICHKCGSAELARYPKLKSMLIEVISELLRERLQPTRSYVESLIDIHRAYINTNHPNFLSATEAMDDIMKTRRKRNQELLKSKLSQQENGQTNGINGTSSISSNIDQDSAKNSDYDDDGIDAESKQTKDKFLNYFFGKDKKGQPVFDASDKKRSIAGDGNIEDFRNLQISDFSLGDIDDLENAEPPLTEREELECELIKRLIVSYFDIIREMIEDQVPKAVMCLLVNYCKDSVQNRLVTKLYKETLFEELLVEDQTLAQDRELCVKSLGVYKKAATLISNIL
Text: In order to discern a detailed mechanism for mitochondrial fission, we have begun to purify and characterize activities associated with known fission components, with the ultimate goal of reconstituting this event in vitro. Towards this goal, we have successfully expressed and purified active recombinant Dnm1 (the yeast mitochondrial fission DRP) from insect cells, using a baculovirus expression system. Using an established radioactive TLC-based assay for GTPase activity, we characterized the kinetic properties of recombinant Dnm1 under low salt conditions (FIG. 10A). […] The Km for GTP for Dnm1 is near 200 μM, greater than that observed for assembled dynamin (˜10 μM). The significance of this difference as it relates to the function of these DRPs will be interesting to determine.
Determining the mechanism of mfisi-1 inhibition is critical for assessing how DRPs function in mitochondrial fission. We will perform standard steady-state kinetic assays to determine the mechanism of inhibition by mfisi-1 using established GTPase assays in the presence of variable concentrations of substrate (GTP) and mfisi-1. […] Nucleotides are resolved using thin layer chromatography, and quantification of GTP and GDP product is performed using a Phosphorimager. All rates are calculated using time points where product formation is linear over time.

mammalian COS cells = test: Mitochondrial fragmentation induced by staurosporine (STS) in COS cells; assay type: cell-based; conditions: COS cells stimulated with STS; mfisi-1 at 50 μM; n=100
Text: As indicated above, we observed that mfisi-1 causes changes in mitochondrial morphology in mammalian cells that are consistent with a block in mitochondrial fission. Thus, we examined the effects of mfisi-1 on mitochondrial fragmentation caused by the intrinsic apoptotic stimulus staurosporine (STS) in mammalian COS cells. […] These observations indicate that mfisi-1 retards apoptosis-stimulated Drp1-dependent mitochondrial fission.

Δdnm1 cells = test: Mitochondrial morphology in Δdnm1 yeast cells; assay type: cell-based
Text: Formally, the small molecules we identified could produce their phenotypes by either inhibiting or activating fission or fusion. To distinguish the exact effects of mfisi-1 and other small molecules identified in our screens on mitochondrial dynamics, we have directly measured the rates of fission and fusion events after drug addition in yeast cells by examining the behavior of mitochondria using time-lapse fluorescence microscopy. […] In contrast, in DMSO treated control cells, both fission and fusion events were easily detected in the same time frame.
To determine the target of mfisi-2, we will characterize this small molecule using the assays for fission. We will also determine whether mfisi-2 affects mitochondrial morphology in mammalian cells. If this is the case, then mfisi-2 might inhibit mitochondrial fission by affecting conserved fission-related activities. […] If mfisi-2 produces mitochondrial net-like structures in mammalian cells, we will determine its effects on apoptosis as described previously. Prioritization and characterization of potential mitochondrial fusion inhibitors In our screens for mitochondrial fusion inhibitors, we identified a total of 37 compounds. […] To determine whether fragmentation in drug-treated cells is strictly dependent upon Dnm1-dependent fission, we determined the effects of these small molecules on mitochondrial morphology in Δdnm1 cells. […]

COc1cc(-n2c(S)nc3ccccc3c2=O)c(Cl)cc1Cl [mfisi-1, 3-(2,4-Dichloro-5-methoxy-phenyl)-2-mercapto-3H-quinazolin-4-one]
IC50 (recombinant Dnm1): ~10 µM | mode of inhibition versus GTP (recombinant Dnm1; mfisi-1 at its IC50, GTP 10 μM-2 mM): NOT a pure competitive inhibitor | % collapsed nets (mammalian COS cells): 0% | % fragmented (mammalian COS cells): 46% | % loose nets (mammalian COS cells): 8% | % reticular (mammalian COS cells): 46% | effect on mitochondrial morphology in Δdnm1 cells (Δdnm1 cells): did not change the net-like morphology
